Assay [1] relates to human Z138 mantle cell lymphoma cells. The assay is described as follows: Tumor growth inhibition study in vivo, Z138 mantle cell lymphoma xenograft, Example 3. The arrangement: species or system SCID beige mice. Conditions: day 35 after tumor cell inoculation; antibodies 1 mg/kg i.p. once weekly x3; GDC-0199 100 mg/kg p.o. once daily for 17 days. The method, then: Animals. […] Continuous health monitoring was carried out on regular basis.
Monitoring. Animals were controlled daily for clinical symptoms and detection of adverse effects.
Treatment of animals. […] The corresponding vehicle was administered on the same days.

The subject of assay [2] is SU.DHL-4 diffuse large B-cell lymphoma xenograft. Description: NHL xenograft model of aggressive lymphoma (DLBCL SU.DHL-4), Example 1. In kind it is in vivo, mice. From the text: The study used a non-Hodgkin's lymphoma (NHL) xenograft model of aggressive lymphoma, the diffuse large B-cell lymphoma (DLBCL) derived cell line SU.DHL-4.
In FIG. 1, the dose of GDC-0199 is expressed as free base equivalents in mg/kg of body weight. Results are expressed as the fitted tumor volume as determined by linear mixed effects modeling for each treatment group vs. time in days, where Day 0 is the first day of treatment.

A further assay relates to DLBCL SU-DHL-4 xenograft. The assay is described as follows: DLBCL SU-DHL-4 xenograft model, combination followed by single-agent GDC-0199, Example 4. In kind it is in vivo, mice. Particulars: GDC-0199 orally for 21 days, GA101 1 mg/kg QW for 3 weeks; alone or in combination. On the procedure:
At day 22 tumor bearing mice in the combination cohort continued to be dosed with GDC-0199 alone at 100 mg/kg for an additional 24 days.
As explained above, a cohort of tumor bearing mice was also dosed with GDC-0199 alone for an additional 24 days after combination treatment ended on day 21 (QD×45). Under the x-axis, treatment periods are denoted by solid black lines ( ? ) for the combination cohorts while the continued single agent GDC-0199 treatment is denoted by dashed black line ( ? ).

rituximab: type I anti-CD20 antibody: the “tumor growth inhibition compared to the control group” value in assay [1] worked out at 32%.
On to `CC1(C)CCC(CN2CCN(c3ccc(C(=O)NS(=O)(=O)c4ccc(NCC5CCOCC5)c([N+](=O)[O-])c4)c(Oc4cnc5[nH]ccc5c4)c3)CC2)=C(c2ccc(Cl)cc2)C1` [GDC-0199, 2-(1H-pyrrolo[2,3-b]pyridin-5-yloxy)-4-(4-((2-(4-chlorophenyl)-4,4-dimethylcyclohex-1-enyl)methyl)piperazin-1-yl)-N-(3-nitro-4-(((tetrahydro-2H-pyran-4-yl)methyl)amino)phenylsulfonyl)benzamide], for which the “tumor growth inhibition (TGI)” value in assay [2] (after three weeks of therapy (treatment ended day 21)) was 80%; in assay [2] (at day 31 (10 days after dosing ended)), 25%; in the assay on DLBCL SU-DHL-4 xenograft, 24%. In assay [2] (obinutuzumab 1 mg/kg IV once a week for 3 weeks, GDC-0199 100 mg/kg QD for 21 days, alone or combined), the “antitumor outcome (in words)” value was “stasis followed by tumor growth delay”. In assay [1], the “tumor growth inhibition compared to the control group” value is on record as 59%.

The values are drawn from patent US11590128B2, “Combination therapy of a type II anti-CD20 antibody with a selective BCL-2 inhibitor” (GENENTECH, INC., priority 2012, dated 2023).
